Assay results: patent US20250177318A1, “CMT-3 FORMULATIONS AND METHODS OF USING THE SAME” (The Research Foundation for the State University of New York, priority 2022, published 2025)

Key:
[1] = Solubility of CMT-3 in aqueous solutions (statement); format: physicochemical
IL-1β = details: leucocytes isolated from patients within 24 h of the onset of direct ARDS; cited from earlier work

- Solubility in aqueous solutions [1]: barely dissolved in aqueous solutions
Structure (SMILES): NC(=O)C1=C(O)CC2CC3Cc4cccc(O)c4C(=O)C3=C(O)[C@]2(O)C1=O (some centres unmarked) [CMT-3, 6-demethyl-6-deoxy-4-de(dimethylamino)tetracycline]
- IL-1β production in alveolar leucocytes (IL-1β): significantly suppressed
